{"source": "patent US20070099907A1", "about": "(priority 2002, published 2007)", "key": {"patients who had an ACS": {"test_system": "patients who had an ACS", "details": "cited from earlier work"}, "[1]": {"test_system": "postischemic cardiac dysfunction", "details": "cited from earlier work"}, "[2]": {"test_system": "patients with acute coronary syndromes without ST-segment elevation", "test": "Open, randomized, single-blind pilot study of meloxicam added to aspirin and heparin: cardiovascular events", "assay_type": "in vivo, human", "method": "(§1) Patients were recruited from the Centro de Salud and the Centro Modelo de Cardiologia, Tucuman, Argentina. Inclusion criteria were chest pain within the previous 24 hours associated with ST-segment depression (>0.5 mm) and either ECG evidence of ischemia or previously documented coronary artery disease. Exclusion criteria were persistent ST-segment elevation and increased levels of the MB isoenzyme of creatine kinase (CK-MB) consistent with acute myocardial infarction, revascularization procedures within the preceding 6 months, malignancy, pregnancy, renal or hepatic diseases, use of anticoagulant therapy, treatment with anti-inflammatory drugs, or contraindication of the study drugs. […] Both groups received aspirin for 30 days. The dose range was 100 to 300 mg per day at the discretion of the treating physician. CK-MB levels were measured before randomization. Additional assays were performed after an episode of chest pain to confirm the diagnosis of acute MI. All patients received subcutaneous LMWH (either nadroparin 87 IU/kg BID or enoxaparin 1 mg/kg BID) or intravenous UFH given as an initial bolus of 5000 IU followed by continuous infusion at 1000 IU per hour for 7 days or until discharge from the hospital. The activated partial-thromboplastin time (APTT) was used to assess the degree of anticoagulation in patients receiving intravenous unfractionated heparin. Patients were tested every 12 hours on the first day and every 24 hours subsequently. The APTT was maintained in the range 45 to 87 seconds (normal value, 30±5 seconds).\n[…] An additional secondary composite variable was determined: MI, death, and all revascularization procedures (percutaneous transluminal coronary angioplasty [PTCA] or coronary artery graft surgery [CABG]). Each component of the primary and secondary outcome variable was also recorded separately. […] Cardiac catheterization was performed at the discretion of treating physicians, but only urgent PTCA and CABG, usually after recurrent angina or MI, were considered as end points. Revascularization procedures were indicated after recurrence of chest pain refractory to medical treatment. During CCU stay and after discharge, all patients were examined for clinical events by an investigator who was unaware of treatment allocation. Patients were also instructed to report any events to study personnel immediately. The diagnostic criteria for MI were chest pain lasting 20 minutes or more with ECG changes and an at least 2-fold elevation of CK-MB. Recurrent angina was defined as recurrence of chest pain with ECG changes refractory to medical therapy (aspirin, heparin, nitroglycerin, and β-blockers).\nRelative risks (RRs) and their 95% CI were obtained. The RR reduction (RRR) is defined as 1 minus RR and expressed as percentage. The absolute risk reduction (ARR) was calculated as the difference between the risk in control patients minus the risk in treated patients and expressed as percentage. A multiple logistic regression model was used to determine the predictive value of the variables associated with events at day 90 in the previous univariate analysis. The software used were CSS/Statistics 3.1 (StatSoft Corp) and EPI INFO 6 v.6.04, 1996."}, "[3]": {"test_system": "activated partial-thromboplastin time (APTT)", "test": "Activated partial thromboplastin time after unfractionated heparin in the pilot study", "assay_type": "in vivo, human", "details": "for Activated Partial Thromboplastin Time, Mean ± SD: patients treated with unfractionated heparin; for Activated Partial Thromboplastin Time, Median: unfractionated heparin", "method": "as §1\nThe nature of the quantitative variables distribution was assessed by the Shapiro-Wilk test. Differences between the 2 treatment groups were analyzed by the Student's t test (independent samples) or the Mann-Whitney test, according to the nature of the distribution. Differences in terms of activated partial thromboplastin time after unfractionated heparin were assessed by a 2-way ANOVA model, with repeated measures in one of the factors (Student Newman-Keuls post-hoc test). Univariate associations between qualitative variables were assessed by X^2 (Yates corrected) and Spearman rank-order correlations."}, "[4]": {"test_system": "patients with acute coronary syndromes without ST-segment elevation", "test": "Safety observations in the pilot study", "assay_type": "in vivo, human", "details": "throughout the course of the study; meloxicam 15 mg/day + aspirin + heparin", "method": "as §1, with “An open, randomized, prospective, single-blind pilot study of the use of meloxicam in ACS patients without ST-segment elevation was performed. Patients” for “Patients”, “The activated partial-thromboplastin time (APTT) was used to assess the degree of anticoagulation in patients receiving intravenous unfractionated heparin. Patients were tested every 12 hours on the first day and every 24 hours subsequently. The APTT was maintained in the range 45 to 87 seconds (normal value, 30±5 seconds).” left out"}, "[5]": {"details": "after bolus intravenous dose of 15 mg meloxicam; cited from earlier work"}, "arthritic patients": {"test_system": "arthritic patients", "details": "compared to patients treated with naproxen; cited from earlier work"}, "[6]": {"test_system": "endothelial COX-2 expression", "details": "cited from earlier work"}, "[7]": {"details": "90-day follow-up, cumulative, n=60 per group"}, "[8]": {"details": "90-day follow-up, meloxicam group vs control"}, "[9]": {"details": "90-day follow-up, meloxicam group vs control, listed as meloxicam"}, "[10]": {"details": "CCU period, meloxicam group vs control"}, "[11]": {"details": "CCU period, meloxicam group vs control, listed as meloxicam"}, "[12]": {"details": "CCU period, n=60 per group, listed as meloxicam"}}, "note": "“Also recorded” adds a separate entry of the source.", "data": [{"smiles": "CC(=O)Oc1ccccc1C(=O)O", "note": "[ASA, acetylsalicylic acid]", "values": [{"measurement": "reduction of combined incidence of cardiovascular death, MI and stroke", "setting": "patients who had an ACS", "value": 25, "unit": "%"}, {"measurement": "aggravation of postischemic cardiac dysfunction", "setting": "[1]", "value": "aggravates postischemic cardiac dysfunction"}]}, {"smiles": "Cc1cnc(NC(=O)C2=C(O)c3ccccc3S(=O)(=O)N2C)s1", "note": "[Meloxicam, 4-hydroxy-2-methyl-N-(5-methyl-2-thiazolyl)-2H-1,2-benzothiazine-3-carboxamide-1,1-dioxide]", "values": [{"measurement": "MI + death + revascularization, % (secondary composite)", "setting": "[2]; [7]", "value": 13.3, "unit": "%"}, {"measurement": "MI + death + revascularization, n (secondary composite)", "setting": "[2]; [7]", "value": 8, "unit": "n"}, {"measurement": "Recurrent angina + MI + vascular death, % (primary composite)", "setting": "[2]; [7]", "value": 21.7, "unit": "%"}, {"measurement": "Recurrent angina + MI + vascular death, n (primary composite)", "setting": "[2]; [7]", "value": 13, "unit": "n"}, {"measurement": "Recurrent angina, %", "setting": "[2]; [7]", "value": 20.0, "unit": "%"}, {"measurement": "Recurrent angina, %", "setting": "[2]; 90-day follow-up, cumulative, n=60 per group, listed as meloxicam", "value": 20, "unit": "%"}, {"measurement": "ARR %, MI + death + revascularization", "setting": "[2]; [8]", "value": 20.0, "unit": "%"}, {"measurement": "ARR %, recurrent angina", "setting": "[2]; [8]", "value": 23.3, "unit": "%"}, {"measurement": "ARR %, revascularization", "setting": "[2]; [8]", "value": 18.3, "unit": "%"}, {"measurement": "RRR (95% CI), recurrent angina", "setting": "[2]; [8]", "value": "53.8 (17-74) %"}, {"measurement": "RRR (95% CI), recurrent angina + MI + vascular death", "setting": "[2]; [8]", "value": "55.1 (22-74) %"}, {"measurement": "RRR (95% CI), revascularization", "setting": "[2]; [8]", "value": "61.0 (14-82) %"}, {"measurement": "RRR (95% CI), MI + death + revascularization", "setting": "[2]; [9]", "value": 60.1, "unit": "%"}, {"measurement": "RRR (95% CI), recurrent angina", "setting": "[2]; [9]", "value": 53.8, "unit": "%"}, {"measurement": "RRR (95% CI), recurrent angina + MI + vascular death", "setting": "[2]; [9]", "value": 55.1, "unit": "%"}, {"measurement": "RRR (95% CI), revascularization", "setting": "[2]; [9]", "value": 61, "unit": "%"}, {"measurement": "Revascularization, %", "setting": "[2]; 90-day follow-up, n=60 per group", "value": 11.7, "unit": "%"}, {"measurement": "Recurrent angina, %", "setting": "[2]; CCU period, meloxicam + aspirin + heparin vs control aspirin + heparin, n=60 per group", "value": 15.0, "unit": "%"}, {"measurement": "ARR %, MI + death + revascularization", "setting": "[2]; [10]", "value": 16.7, "unit": "%"}, {"measurement": "ARR %, all revascularization", "setting": "[2]; [10]", "value": 15.0, "unit": "%"}, {"measurement": "ARR %, recurrent angina", "setting": "[2]; [10]", "value": 20.0, "unit": "%"}, {"measurement": "ARR %, recurrent angina + MI + vascular death", "setting": "[2]; [10]", "value": 23.3, "unit": "%"}, {"measurement": "RRR (95% CI), MI + death + revascularization", "setting": "[2]; [10]", "value": "62.5 (11-84) %"}, {"measurement": "RRR (95% CI), all revascularization", "setting": "[2]; [10]", "value": 60.1, "unit": "%"}, {"measurement": "RRR (95% CI), recurrent angina", "setting": "[2]; [10]", "value": "57.1 (14-79) %"}, {"measurement": "RRR (95% CI), recurrent angina + MI + vascular death", "setting": "[2]; [10]", "value": "60.8 (23-80) %"}, {"measurement": "ARR %, all revascularization", "setting": "[2]; [11]", "value": 15, "unit": "%"}, {"measurement": "ARR %, recurrent angina", "setting": "[2]; [11]", "value": 20, "unit": "%"}, {"measurement": "RRR (95% CI), MI + death + revascularization", "setting": "[2]; [11]", "value": 62.5, "unit": "%"}, {"measurement": "RRR (95% CI), all revascularization", "setting": "[2]; [11]", "value": 60.8, "unit": "%"}, {"measurement": "RRR (95% CI), recurrent angina", "setting": "[2]; [11]", "value": 57.1, "unit": "%"}, {"measurement": "RRR (95% CI), recurrent angina + MI + vascular death", "setting": "[2]; [11]", "value": 60.8, "unit": "%"}, {"measurement": "All revascularization, %", "setting": "[2]; CCU period, n=60 per group", "value": 10.0, "unit": "%"}, {"measurement": "MI + death + revascularization, % (secondary composite)", "setting": "[2]; CCU period, n=60 per group", "value": 10.0, "unit": "%"}, {"measurement": "MI + death + revascularization, n (secondary composite)", "setting": "[2]; CCU period, n=60 per group", "value": 6, "unit": "n"}, {"measurement": "Recurrent angina + MI + vascular death, % (primary composite)", "setting": "[2]; CCU period, n=60 per group", "value": 15.0, "unit": "%"}, {"measurement": "Recurrent angina + MI + vascular death, n (primary composite)", "setting": "[2]; CCU period, n=60 per group", "value": 9, "unit": "n"}, {"measurement": "MI + death + revascularization, % (secondary composite)", "setting": "[2]; [12]", "value": 10, "unit": "%"}, {"measurement": "Recurrent angina + MI + vascular death, % (primary composite)", "setting": "[2]; [12]", "value": 15, "unit": "%"}, {"measurement": "patients reaching the additional secondary outcome variable (MI, death, revascularization)", "setting": "[2]; at 30 days", "value": 11.7, "unit": "%"}, {"measurement": "patients reaching the primary outcome variable (recurrent angina, MI, or death)", "setting": "[2]; at 30 days", "value": 20.0, "unit": "%"}, {"measurement": "improvement of the ARR in recurrent angina", "setting": "[2]; during the 30-day treatment period", "value": 3.3, "unit": "%"}, {"measurement": "decrease of the triple end points (recurrent angina, MI and vascular death or MI, death and coronary revascularization procedures)", "setting": "[2]; meloxicam with aspirin and heparin, ACS without ST-segment elevation", "value": 60, "unit": "%"}, {"measurement": "patients reaching the primary outcome variable (recurrent angina, MI, or death)", "setting": "[2]; within 48 hours of randomization", "value": 1.7, "unit": "%"}, {"measurement": "Activated Partial Thromboplastin Time, Mean ± SD", "setting": "[3]; Day 1", "value": "55.8 ± 26.4", "unit": "s"}, {"measurement": "Activated Partial Thromboplastin Time, Median", "setting": "[3]; Day 1", "value": 48, "unit": "s"}, {"measurement": "Activated Partial Thromboplastin Time, Mean ± SD", "setting": "[3]; Day 2", "value": "69.6 ± 19.9", "unit": "s"}, {"measurement": "Activated Partial Thromboplastin Time, Median", "setting": "[3]; Day 2", "value": 62, "unit": "s"}, {"measurement": "Activated Partial Thromboplastin Time, Mean ± SD", "setting": "[3]; Day 3", "value": "89.9 ± 24.4", "unit": "s"}, {"measurement": "Activated Partial Thromboplastin Time, Median", "setting": "[3]; Day 3", "value": 86, "unit": "s"}, {"measurement": "Activated Partial Thromboplastin Time, Mean ± SD", "setting": "[3]; Day 4, control vs meloxicam P < 0.05", "value": "89.3 ± 20.8", "unit": "s"}, {"measurement": "Activated Partial Thromboplastin Time, Median", "setting": "[3]; Day 4", "value": 84.5, "unit": "s"}, {"measurement": "adverse complications (bleeding complications, side effects, intolerance)", "setting": "[4]", "value": "No adverse complications; also recorded: No bleeding complications, side effects, or intolerance"}, {"measurement": "Cmax", "setting": "[5]", "value": 3000, "unit": "ng/mL"}, {"measurement": "tmax", "setting": "[5]", "value": 3, "unit": "min"}]}, {"smiles": "CS(=O)(=O)c1ccc(C2=C(c3ccccc3)C(=O)OC2)cc1", "note": "[rofecoxib]", "values": [{"measurement": "risk of heart attack", "setting": "arthritic patients", "value": "five-fold higher risk of heart attack"}]}, {"smiles": "CC(=O)Oc1cc(C(F)(F)F)ccc1C(=O)O", "note": "[triflusal]", "values": [{"measurement": "inhibitory activity against endothelial COX-2 expression", "setting": "[6]", "value": "very little inhibitory activity"}]}]}
